Literature values in US8586094B2, “Coated tablets” (Jagotec AG, priority 2000, dated 2013).
Read-outs that look alike come from different tables or passages of the source.

elimination / plasma half-life: approximately twenty
elimination / plasma half-life (listed as Fenofibric acid): about 20 hours
SMILES: CC(C)(Oc1ccc(C(=O)c2ccc(Cl)cc2)cc1)C(=O)O [fenofibric acid]
